{"source": "patent US7183385B2", "about": "“Phospho-specific antibodies to Flt3 and uses thereof” (Cell Signaling Technology, Inc., priority 2002, dated 2007)", "target": "T1, constitutively active Flt3 in EOL-1 cells (Homo sapiens, UniProt P36888)", "T1 construct": "expresses an endogenous, constitutively active Flt3; endogenous in cells; host or cells: EOL-1 hematopoietic cell line", "T1 sequence (P36888 27-993)": "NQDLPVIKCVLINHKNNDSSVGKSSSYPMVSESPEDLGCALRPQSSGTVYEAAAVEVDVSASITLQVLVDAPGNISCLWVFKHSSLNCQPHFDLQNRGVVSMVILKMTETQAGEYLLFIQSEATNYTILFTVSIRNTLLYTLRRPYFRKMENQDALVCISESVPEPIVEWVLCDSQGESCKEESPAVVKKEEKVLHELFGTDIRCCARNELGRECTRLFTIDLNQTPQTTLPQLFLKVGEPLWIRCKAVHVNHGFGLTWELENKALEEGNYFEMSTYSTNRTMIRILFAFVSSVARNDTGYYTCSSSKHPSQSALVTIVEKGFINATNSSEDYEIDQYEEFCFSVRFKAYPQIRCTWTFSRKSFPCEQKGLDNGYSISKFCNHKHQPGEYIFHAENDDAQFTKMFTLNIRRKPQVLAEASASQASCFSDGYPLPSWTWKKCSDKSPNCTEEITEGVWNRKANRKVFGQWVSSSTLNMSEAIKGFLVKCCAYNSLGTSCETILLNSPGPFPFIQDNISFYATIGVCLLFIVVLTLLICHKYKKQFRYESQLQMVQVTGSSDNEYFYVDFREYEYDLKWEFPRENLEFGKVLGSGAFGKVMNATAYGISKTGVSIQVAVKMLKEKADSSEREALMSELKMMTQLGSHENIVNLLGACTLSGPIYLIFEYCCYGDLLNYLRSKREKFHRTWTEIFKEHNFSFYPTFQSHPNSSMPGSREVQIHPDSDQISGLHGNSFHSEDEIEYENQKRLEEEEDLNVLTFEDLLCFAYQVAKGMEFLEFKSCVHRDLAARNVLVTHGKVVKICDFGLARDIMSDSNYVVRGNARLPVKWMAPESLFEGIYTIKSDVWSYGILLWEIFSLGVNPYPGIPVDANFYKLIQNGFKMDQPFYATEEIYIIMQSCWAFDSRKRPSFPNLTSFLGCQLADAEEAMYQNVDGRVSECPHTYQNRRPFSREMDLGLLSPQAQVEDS", "assay": "Flt3 inhibitor effect on phospho-Flt3(Tyr591) staining in EOL-1 cells by flow cytometry", "type": "cell-based", "settings": "serum-starved EOL-1 cells, inhibitor 4 hours at 37° C.; FIG. 6", "protocol": "Flt3(Tyr591) phosphospecific monoclonal antibody CST #25-54 was used in flow cytometry to detect phospho-Flt3(Tyr591) in the EOL-1 hematopoietic cell line that expresses an endogenous, constitutively active Flt3. Serum-starved cells were incubated with or without the small molecule Flt3 inhibitor AG1296 for 4 hours at 37° C. The cells then were fixed with 2% paraformaldehyde for 10 minutes at 37° C. followed by cell permeabilization 90% with methanol for 30 minutes on ice. The fixed cells were then stained with the Alexa 488-conjugated Flt3 primary antibody for 1 hour at room temperature. The cells were then analyzed on a Beckman Coulter EPICS-XL flow cytometer."}
{"smiles": "COc1cc2ncc(-c3ccccc3)nc2cc1OC", "note": "[AG1296]", "values": [{"measurement": "Activity against Flt3 (in words)", "result": "active against Flt3"}, {"measurement": "Population of cells showing less staining with the phospho-Flt3(Tyr591) antibody in the presence of the drug", "result": "approximately 30 % of the total cells"}]}
